From US20220220103A1, “CYCLIN-DEPENDENT KINASE INHIBITORS” (SPV THERAPEUTICS INC., priority 2018, published 2022)

Assays:
CDK6-CYCLIND3 = CDK6-CYCLIND3 (Homo sapiens, UniProt Q00534); assay: Microfluidic LabChip inhibition assay, CDK6-CYCLIND3; assay type: biochemical; conditions: Table 2; ATP 300 μM, 25° C.; read-out: CDK6 IC50
Method: (§1) The reaction was terminated by the addition of EDTA. The plates were analyzed using a Caliper LabChip 3000.
(§2) Additional inhibition assays were performed as described above.

CDK4-CYCLIND1 = CDK4-CYCLIND1 (Homo sapiens, UniProt P11802); assay: Microfluidic LabChip inhibition assay, CDK4-CYCLIND1; assay type: biochemical; conditions: Table 2; ATP 200 μM, 25° C.; read-out: CDK4 IC50
CDK4-CYCLIND1, sequence (P11802 whole entry): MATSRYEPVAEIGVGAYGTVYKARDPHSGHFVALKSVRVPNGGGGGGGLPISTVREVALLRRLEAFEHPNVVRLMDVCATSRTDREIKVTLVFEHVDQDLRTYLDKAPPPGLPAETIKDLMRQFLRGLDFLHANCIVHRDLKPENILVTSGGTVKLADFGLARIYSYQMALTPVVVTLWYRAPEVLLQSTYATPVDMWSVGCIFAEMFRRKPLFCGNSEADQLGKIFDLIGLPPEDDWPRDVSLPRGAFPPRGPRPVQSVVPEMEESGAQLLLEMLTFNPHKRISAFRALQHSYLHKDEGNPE
CDK4-CYCLIND1, sequence (P24385 whole entry partner): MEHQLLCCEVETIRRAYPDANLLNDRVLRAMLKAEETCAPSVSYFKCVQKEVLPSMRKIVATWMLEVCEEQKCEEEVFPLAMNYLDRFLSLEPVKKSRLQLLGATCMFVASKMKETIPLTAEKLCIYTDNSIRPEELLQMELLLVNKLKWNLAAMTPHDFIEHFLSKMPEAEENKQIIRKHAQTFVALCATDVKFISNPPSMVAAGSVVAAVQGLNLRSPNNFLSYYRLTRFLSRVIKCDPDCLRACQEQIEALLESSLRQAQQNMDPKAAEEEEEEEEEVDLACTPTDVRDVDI
Method: as §1, §2

CDK6-CYCLIND3, sequence (Q00534 whole entry): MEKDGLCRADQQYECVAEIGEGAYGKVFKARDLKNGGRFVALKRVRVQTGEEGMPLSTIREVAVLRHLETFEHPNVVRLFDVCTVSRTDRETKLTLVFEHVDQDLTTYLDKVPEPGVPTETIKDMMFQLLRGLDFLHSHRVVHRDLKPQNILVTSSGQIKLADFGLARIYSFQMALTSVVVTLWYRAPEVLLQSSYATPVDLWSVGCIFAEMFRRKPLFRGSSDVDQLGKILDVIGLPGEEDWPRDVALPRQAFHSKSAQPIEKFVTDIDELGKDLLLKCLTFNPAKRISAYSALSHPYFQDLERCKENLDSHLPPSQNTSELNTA
CDK6-CYCLIND3, sequence (P30281 whole entry partner): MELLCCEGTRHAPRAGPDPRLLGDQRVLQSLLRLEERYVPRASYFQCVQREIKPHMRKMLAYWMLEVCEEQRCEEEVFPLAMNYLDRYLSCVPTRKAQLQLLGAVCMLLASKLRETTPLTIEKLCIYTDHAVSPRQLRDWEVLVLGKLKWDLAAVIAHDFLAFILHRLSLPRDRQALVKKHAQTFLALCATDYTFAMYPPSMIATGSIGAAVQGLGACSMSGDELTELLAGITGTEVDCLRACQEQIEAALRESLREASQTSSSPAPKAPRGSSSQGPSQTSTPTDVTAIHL

Row | Structure (SMILES) | IC50 (CDK6-CYCLIND3) [nM] | IC50 (CDK4-CYCLIND1) [nM]
1 | N#Cc1cc2cnc(Nc3ccc(OCCN4CCCCC4)cn3)nc2n(C2CCCC2)c1=O [Compound B12, 8-cyclopentyl-7-oxo-2-((5-(2-(piperidin-1-yl)ethoxy)pyridin-2-yl)amino)-7,8-dihydropyrido[2,3-d]pyrimidine-6-carbonitrile] | 61.9 | 39.3
2 | N#Cc1cc2cnc(Nc3ccc(N4CCNCC4)c(F)c3)nc2n(C2CCCC2)c1=O [Compound B14, 8-cyclopentyl-2-((3-fluoro-4-(piperazin-1-yl)phenyl)amino)-7-oxo-7,8-dihydropyrido[2,3-d]pyrimidine-6-carbonitrile] | 7.27 | 2.03
3 | CN(C)CCOc1ccc(Nc2ncc3cc(C#N)c(=O)n(C4CCCC4)c3n2)cc1 [Compound B15, 8-cyclopentyl-2-((4-(2-(dimethylamino)ethoxy)phenyl)amino)-7-oxo-7,8-dihydropyrido[2,3-d]pyrimidine-6-carbonitrile] | 14.3 | 4.62
4 | N#Cc1cc2cnc(Nc3ccc(N4CCNCC4)cc3F)nc2n(C2CCCC2)c1=O [Compound B26, 8-cyclopentyl-2-((2-fluoro-4-(piperazin-1-yl)phenyl)amino)-7-oxo-7,8-dihydropyrido[2,3-d]pyrimidine-6-carbonitrile] | 36.8 | 15.4
5 | N#Cc1cc2cnc(Nc3ccc(OCCN4CCCC4)nc3)nc2n(C2CCCC2)c1=O [Compound B28, 8-cyclopentyl-7-oxo-2-((6-(2-(pyrrolidin-1-yl)ethoxy)pyridin-3-yl)amino)-7,8-dihydropyrido[2,3-d]pyrimidine-6-carbonitrile] | 120 | 45
6 | CC(C)N1CCN(c2cnc(Nc3ncc4cc(C#N)c(=O)n(C5CCCC5)c4n3)cc2C(F)(F)F)CC1 [Compound B29, 8-cyclopentyl-2-((5-(4-isopropylpiperazin-1-yl)-4-(trifluoromethyl)pyridin-2-yl)amino)-7-oxo-7,8-dihydropyrido[2,3-d]pyrimidine-6-carbonitrile] | > 30000 | > 30000
7 | N#Cc1cc2cnc(Nc3ccc(OCCN4CCCC4)c(F)c3)nc2n(C2CCCC2)c1=O [Compound B30] | 24.2 | 7.62
8 | N#Cc1cc2cnc(Nc3ccc(N4CC5(CNC5)C4)cn3)nc2n(C2CCCC2)c1=O [Compound B32, 2-((5-(2,6-diazaspiro[3.3]heptan-2-yl)pyridin-2-yl)amino)-8-cyclopentyl-7-oxo-7,8-dihydropyrido[2,3-d]pyrimidine-6-carbonitrile] | 33.4 | 21.1
9 | N#Cc1cc2cnc(Nc3ccc(N4CC5(CNC5)C4)nc3)nc2n(C2CCCC2)c1=O [Compound B33, 2-((6-(2,6-diazaspiro[3.3]heptan-2-yl)pyridin-3-yl)amino)-8-cyclopentyl-7-oxo-7,8-dihydropyrido[2,3-d]pyrimidine-6-carbonitrile] | 14.4 | 5.97
10 | N#Cc1cc2cnc(Nc3ccc(N4CC5(CNC5)C4)c(F)c3)nc2n(C2CCCC2)c1=O [Compound B34, 8-cyclopentyl-2-((3-fluoro-4-(2,6-diazaspiro[3.3]heptan-2-yl)phenyl)amino)-7-oxo-7,8-dihydropyrido[2,3-d]pyrimidine-6-carbonitrile] | 3.89 | 1.21
11 | CN(C)[C@H]1CCN(C(=O)c2ccc(Nc3ncc4cc(C#N)c(=O)n(C5CCCC5)c4n3)cc2F)C1 [Compound B36, (S)-8-cyclopentyl-2-((4-(3-(dimethylamino)pyrrolidine-1-carbonyl)-3-fluorophenyl)amino)-7-oxo-7,8-dihydropyrido[2,3-d]pyrimidine-6-carbonitrile] | 73.1 | 13.2
12 | CCN1CCN(Cc2ccc(Nc3ncc4cc(C#N)c(=O)n(C5CCCC5)c4n3)nc2)CC1 [Compound B37, 8-cyclopentyl-2-((5-((4-ethylpiperazin-1-yl)methyl)pyridin-2-yl)amino)-7-oxo-7,8-dihydropyrido[2,3-d]pyrimidine-6-carbonitrile] | 93.6 | 46.3

Other lines, results leading:

Row | IC50 (CDK6-CYCLIND3) [nM] | IC50 (CDK4-CYCLIND1) [nM] | Structure (SMILES)
13 | 798 | 571 | N#Cc1cc2cnc(Nc3ccc(N4CCN5CCC4CC5)cn3)nc2n(C2CCCC2)c1=O [Compound B13, 2-((5-(1,4-diazabicyclo[3.2.2]nonan-4-yl)pyridin-2-yl)amino)-8-cyclopentyl-7-oxo-7,8-dihydropyrido[2,3-d]pyrimidine-6-carbonitrile]
14 | 6.32 | 1.8 | CC(C)N1CCN(c2ccc(Nc3ncc4cc(C#N)c(=O)n(C5CCCC5)c4n3)cc2)CC1 [Compound B16, 8-cyclopentyl-2-((4-(4-isopropylpiperazin-1-yl)phenyl)amino)-7-oxo-7,8-dihydropyrido[2,3-d]pyrimidine-6-carbonitrile]
15 | 7.71 | 1.78 | CN1CCN(c2ccc(Nc3ncc4cc(C#N)c(=O)n(C5CCCC5)c4n3)cc2F)CC1 [Compound B17, 8-cyclopentyl-2-((3-fluoro-4-(4-methylpiperazin-1-yl)phenyl)amino)-7-oxo-7,8-dihydropyrido[2,3-d]pyrimidine-6-carbonitrile]
16 | 10.4 | 2.31 | CC(C)N1CCN(c2ccc(Nc3ncc4cc(C#N)c(=O)n(C5CCCC5)c4n3)cc2F)CC1 [Compound B18, 8-cyclopentyl-2-((3-fluoro-4-(4-isopropylpiperazin-1-yl)phenyl)amino)-7-oxo-7,8-dihydropyrido[2,3-d]pyrimidine-6-carbonitrile]
17 | 89.8 | 69.1 | CC(C)N1CCN(c2ccc(Nc3ncc4cc(C#N)c(=O)n(C5CCCC5)c4n3)c(F)c2)CC1 [Compound B19, 8-cyclopentyl-2-((2-fluoro-4-(4-isopropylpiperazin-1-yl)phenyl)amino)-7-oxo-7,8-dihydropyrido[2,3-d]pyrimidine-6-carbonitrile]
18 | ≥ 30000 | 15700 | N#Cc1cc2cnc(N3CCC(N4CCOCC4)CC3)nc2n(C2CCCC2)c1=O [Compound B20, 8-cyclopentyl-2-(4-morpholinopiperidin-1-yl)-7-oxo-7,8-dihydropyrido[2,3-d]pyrimidine-6-carbonitrile]
19 | > 30000 | > 30000 | N#Cc1ccc(N2CCN(c3ncc4cc(C#N)c(=O)n(C5CCCC5)c4n3)CC2)cc1 [Compound B21, 2-(4-(4-cyanophenyl)piperazin-1-yl)-8-cyclopentyl-7-oxo-7,8-dihydropyrido[2,3-d]pyrimidine-6-carbonitrile]
20 | 19.7 | 6.93 | N#Cc1cc2cnc(Nc3ccc(N4CCNCC4)nc3)nc2n(C2CCCC2)c1=O [Compound B22, 8-cyclopentyl-7-oxo-2-((6-(piperazin-1-yl)pyridin-3-yl)amino)-7,8-dihydropyrido[2,3-d]pyrimidine-6-carbonitrile]
21 | 33.2 | 11.5 | CN1CCN(c2ccc(Nc3ncc4cc(C#N)c(=O)n(C5CCCC5)c4n3)cn2)CC1 [Compound B23, 8-cyclopentyl-2-((6-(4-methylpiperazin-1-yl)pyridin-3-yl)amino)-7-oxo-7,8-dihydropyrido[2,3-d]pyrimidine-6-carbonitrile]
22 | 35.8 | 11.1 | N#Cc1cc2cnc(Nc3ccc(N4CCOCC4)c(F)c3)nc2n(C2CCCC2)c1=O [Compound B24, 8-cyclopentyl-2-((3-fluoro-4-morpholinophenyl)amino)-7-oxo-7,8-dihydropyrido[2,3-d]pyrimidine-6-carbonitrile]
23 | 19 | 7.51 | CC(C)N1CCN(c2ccc(Nc3ncc4cc(C#N)c(=O)n(C5CCCC5)c4n3)nc2)CC1 [Compound B25, 8-cyclopentyl-2-((5-(4-isopropylpiperazin-1-yl)pyridin-2-yl)amino)-7-oxo-7,8-dihydropyrido[2,3-d]pyrimidine-6-carbonitrile]
24 | 1400 | 457 | CN1CCN(c2ccc(Nc3ncc4cc(C#N)c(=O)n(C5CCCC5)c4n3)c(F)c2)CC1 [Compound B27, 8-cyclopentyl-2-((2-fluoro-4-(4-methylpiperazin-1-yl)phenyl)amino)-7-oxo-7,8-dihydropyrido[2,3-d]pyrimidine-6-carbonitrile]
25 | 8.29 | 2.41 | N#Cc1cc2cnc(Nc3ccc(N4CC5(CNC5)C4)cc3)nc2n(C2CCCC2)c1=O [Compound B31, 2-((4-(2,6-diazaspiro[3.3]heptan-2-yl)phenyl)amino)-8-cyclopentyl-7-oxo-7,8-dihydropyrido[2,3-d]pyrimidine-6-carbonitrile]
26 | 22.3 | 3.84 | CN(C)[C@H]1CCN(C(=O)c2ccc(Nc3ncc4cc(C#N)c(=O)n(C5CCCC5)c4n3)cc2)C1 [Compound B35, (S)-8-cyclopentyl-2-((4-(3-(dimethylamino)pyrrolidine-1-carbonyl)phenyl)amino)-7-oxo-7,8-dihydropyrido[2,3-d]pyrimidine-6-carbonitrile]
27 | 29.8 | 9.81 | N#Cc1cc2cnc(Nc3ccc(N4CCC(N5CCOCC5)CC4)cc3)nc2n(C2CCCC2)c1=O [Compound B38, 8-cyclopentyl-2-((4-(4-morpholinopiperidin-1-yl)phenyl)amino)-7-oxo-7,8-dihydropyrido[2,3-d]pyrimidine-6-carbonitrile]
28 | 27.9 | 9.27 | N#Cc1cc2cnc(Nc3ccc(N4CCC(N5CCOCC5)CC4)cn3)nc2n(C2CCCC2)c1=O [Compound B39, 8-cyclopentyl-2-((5-(4-morpholinopiperidin-1-yl)pyridin-2-yl)amino)-7-oxo-7,8-dihydropyrido[2,3-d]pyrimidine-6-carbonitrile]
29 | 30.8 | 11.3 | N#Cc1cc2cnc(Nc3ccc(N4CCC(N5CCOCC5)CC4)nc3)nc2n(C2CCCC2)c1=O [Compound B40, 8-cyclopentyl-2-((6-(4-morpholinopiperidin-1-yl)pyridin-3-yl)amino)-7-oxo-7,8-dihydropyrido[2,3-d]pyrimidine-6-carbonitrile]
